Test results reported in patent US12723063B2, “GIPR-agonist compounds” (Eli Lilly and Company, priority 2019, dated 2026).
*1 amine or outer side, *2 acyl side, *3 side chain or, on linkers, in order; H or OH if unused. Where a SMILES comes first, the peptide text is derived from it. Side-chain parts run from the residue outwards. [ ]: non-standard residue; d: D form. The star is where a group is joined. C20 diacid = O=C(O)CCCCCCCCCCCCCCCCCCC(=O)*; C18 diacid = O=C(O)CCCCCCCCCCCCCCCCC(=O)*; αMePhe(2-F) = C[C@](N)(Cc1ccccc1F)C(=O)O; γGlu = O=C(O)[C@H](CCC(=O)[*:2])N[*:1]; 4Pal = N[C@@H](Cc1ccncc1)C(=O)O; αMeL = CC(C)C[C@](C)(N)C(=O)O; Iva = CC[C@](C)(N)C(=O)O; Orn = NCCC[C@H](N)C(=O)O; AEEA = NCCOCCOCC(=O)O; Aib = CC(C)(N)C(=O)O

How the values were obtained:
Test in all cases: cAMP functional assay (HTRF) in HEK293 cells in presence of 0.1% casein
Format in all cases: cell-based
[1] = target: T1, human glucagon receptor (GcgR) (Homo sapiens, UniProt P47871); conditions: HEK293 cells expressing human GcgR, geometric mean, read-out: hGcgR cAMP Rel EC50 nM (SEM, n)
T1 construct: expressed in transfected cells; host or cells: HEK293
T1 sequence (P47871 26-477): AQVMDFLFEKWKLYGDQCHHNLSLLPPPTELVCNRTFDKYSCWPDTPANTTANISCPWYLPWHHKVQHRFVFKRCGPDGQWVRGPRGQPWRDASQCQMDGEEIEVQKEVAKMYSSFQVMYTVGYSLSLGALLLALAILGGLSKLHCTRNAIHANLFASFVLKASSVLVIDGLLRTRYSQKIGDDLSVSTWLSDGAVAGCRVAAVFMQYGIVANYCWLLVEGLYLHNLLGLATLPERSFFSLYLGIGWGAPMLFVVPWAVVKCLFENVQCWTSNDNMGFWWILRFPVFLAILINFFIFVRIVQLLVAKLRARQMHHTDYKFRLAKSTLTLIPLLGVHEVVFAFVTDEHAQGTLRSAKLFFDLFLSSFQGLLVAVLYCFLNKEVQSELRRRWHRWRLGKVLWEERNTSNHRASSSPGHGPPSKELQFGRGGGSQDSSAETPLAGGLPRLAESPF

[2] = target: T2, human GLP-1 receptor (GLP-1R) (Homo sapiens, UniProt P43220); conditions: HEK293 cells expressing human GLP-1R, geometric mean, read-out: hGLP1R cAMP Rel EC50 nM (SEM, n)
T2 construct: expressed in transfected cells; host or cells: HEK293
T2 sequence (P43220 24-463): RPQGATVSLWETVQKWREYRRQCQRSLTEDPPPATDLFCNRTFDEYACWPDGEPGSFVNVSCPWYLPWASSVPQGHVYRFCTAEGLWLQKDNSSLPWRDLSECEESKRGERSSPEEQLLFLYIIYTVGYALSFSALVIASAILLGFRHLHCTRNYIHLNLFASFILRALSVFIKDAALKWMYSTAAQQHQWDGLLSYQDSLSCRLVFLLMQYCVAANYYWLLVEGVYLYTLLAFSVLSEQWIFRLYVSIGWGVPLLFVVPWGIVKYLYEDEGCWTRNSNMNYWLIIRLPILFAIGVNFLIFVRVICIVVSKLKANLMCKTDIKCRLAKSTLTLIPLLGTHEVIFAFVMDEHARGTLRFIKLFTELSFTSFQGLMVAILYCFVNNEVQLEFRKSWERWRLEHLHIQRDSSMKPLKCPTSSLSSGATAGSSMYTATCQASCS

[3] = target: T3, human glucose-dependent insulinotropic peptide receptor (GIPR) (Homo sapiens, UniProt P48546); conditions: HEK293 cells expressing human GIPR, geometric mean, read-out: hGIPR cAMP Rel EC50 nM (SEM, n)
T3 construct: expressed in transfected cells; host or cells: HEK293
T3 sequence (P48546 22-466): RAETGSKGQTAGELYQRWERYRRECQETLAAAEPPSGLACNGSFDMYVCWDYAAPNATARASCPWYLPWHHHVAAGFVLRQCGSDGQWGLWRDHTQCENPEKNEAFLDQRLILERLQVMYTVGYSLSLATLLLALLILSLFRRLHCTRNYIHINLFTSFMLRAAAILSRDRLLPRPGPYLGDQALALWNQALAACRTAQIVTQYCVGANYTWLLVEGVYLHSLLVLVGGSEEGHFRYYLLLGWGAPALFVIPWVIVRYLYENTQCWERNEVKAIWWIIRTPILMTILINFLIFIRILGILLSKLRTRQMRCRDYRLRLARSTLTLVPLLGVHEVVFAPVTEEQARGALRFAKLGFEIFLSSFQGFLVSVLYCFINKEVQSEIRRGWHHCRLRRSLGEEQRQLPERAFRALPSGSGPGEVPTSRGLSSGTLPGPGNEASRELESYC

Compound | EC50 [1] | EC50 [2] | EC50 [3]
CC[C@H](C)[C@H](NC(=O)[C@H](Cc1ccccc1)NC(=O)[C@@H](NC(=O)CNC(=O)[C@H](CCC(=O)O)NC(=O)C(C)(C)NC(=O)[C@@H](N)Cc1ccc(O)cc1)[C@@H](C)O)C(=O)N[C@@H](CO)C(=O)N[C@@H](CC(=O)O)C(=O)N[C@@H](Cc1ccc(O)cc1)C(=O)N[C@@H](CO)C(=O)N[C@H](C(=O)N[C@@](C)(CC(C)C)C(=O)N[C@@H](CC(C)C)C(=O)N[C@@H](CC(=O)O)C(=O)N[C@@H](CCCN)C(=O)N[C@@H](CCCCNC(=O)COCCOCCNC(=O)COCCOCCNC(=O)CC[C@H](NC(=O)CCCCCCCCCCCCCCCCC(=O)O)C(=O)O)C(=O)N[C@@H](Cc1c[nH]cn1)C(=O)N[C@@H](CCC(N)=O)C(=O)NC(C)(C)C(=O)N[C@@H](CC(=O)O)C(=O)N[C@@H](Cc1ccccc1)C(=O)N[C@H](C(=O)N[C@@H](CCC(=O)O)C(=O)N[C@@H](Cc1ccncc1)C(=O)N[C@@H](CC(C)C)C(=O)N[C@@H](CC(C)C)C(=O)N[C@@H](CCC(=O)O)C(=O)N[C@@H](C)C(=O)NCC(=O)N1CCC[C@H]1C(=O)N[C@@H](CO)C(=O)N[C@@H](CO)C(=O)NCC(=O)N[C@@H](C)C(=O)N1CCC[C@H]1C(=O)N1CCC[C@H]1C(=O)N1CCC[C@H]1C(=O)N[C@@H](CO)C(N)=O)C(C)C)[C@@H](C)CC [Example 87] (H-Y[Aib]EGTFISDYSI[αMeL]LD[Orn]K([AEEA-AEEA-γGlu-C18 diacid])HQ[Aib]DFVE[4Pal]LLEAGPSSGAPPPS-NH2) | > 5000 nM | > 5000 nM | 0.0107 nM
CC[C@H](C)[C@H](NC(=O)[C@H](CCCCN)NC(=O)[C@H](CC(=O)O)NC(=O)[C@H](CC(C)C)NC(=O)[C@](C)(CC(C)C)NC(=O)[C@@H](NC(=O)[C@H](CO)NC(=O)[C@H](Cc1ccc(O)cc1)NC(=O)[C@H](CC(=O)O)NC(=O)[C@H](CO)NC(=O)[C@@H](NC(=O)[C@H](Cc1ccccc1)NC(=O)[C@@H](NC(=O)CNC(=O)[C@H](CCC(=O)O)NC(=O)C(C)(C)NC(=O)[C@@H](N)Cc1ccc(O)cc1)[C@@H](C)O)[C@@H](C)CC)[C@@H](C)CC)C(=O)N[C@@H](Cc1c[nH]cn1)C(=O)N[C@@H](CCC(N)=O)C(=O)NC(C)(C)C(=O)N[C@@H](CCC(=O)O)C(=O)N[C@@H](Cc1ccccc1)C(=O)N[C@H](C(=O)N[C@@H](CCC(=O)O)C(=O)N[C@@H](Cc1ccncc1)C(=O)N[C@@H](CCCCNC(=O)COCCOCCNC(=O)COCCOCCNC(=O)CC[C@H](NC(=O)CCCCCCCCCCCCCCCCCCC(=O)O)C(=O)O)C(=O)N[C@@H](CC(C)C)C(=O)N[C@@H](CCC(=O)O)C(=O)NCC(=O)NCC(=O)N1CCC[C@H]1C(=O)N[C@@H](CO)C(=O)N[C@@H](CO)C(=O)NCC(=O)N[C@@H](C)C(=O)N1CCC[C@H]1C(=O)N1CCC[C@H]1C(=O)N1CCC[C@H]1C(=O)N[C@@H](CO)C(N)=O)C(C)C [Example 100] (H-Y[Aib]EGTFISDYSI[αMeL]LDKIHQ[Aib]EFVE[4Pal]K([AEEA-AEEA-γGlu-C20 diacid])LEGGPSSGAPPPS-NH2) | > 5000 nM | > 5000 nM | 0.0224 nM
CC[C@H](C)[C@H](NC(=O)[C@H](CO)NC(=O)[C@H](Cc1ccc(O)cc1)NC(=O)[C@H](CC(=O)O)NC(=O)[C@H](CO)NC(=O)[C@@H](NC(=O)[C@](C)(CC)NC(=O)[C@@H](NC(=O)CNC(=O)[C@H](CCC(=O)O)NC(=O)C(C)(C)NC(=O)[C@@H](N)Cc1ccc(O)cc1)[C@@H](C)O)[C@@H](C)CC)C(=O)N[C@@](C)(CC(C)C)C(=O)N[C@@H](CC(C)C)C(=O)N[C@@H](CC(=O)O)C(=O)N[C@@H](CCCCN)C(=O)N[C@@H](CCCCNC(=O)COCCOCCNC(=O)COCCOCCNC(=O)CC[C@H](NC(=O)CCCCCCCCCCCCCCCCCCC(=O)O)C(=O)O)C(=O)N[C@@H](Cc1c[nH]cn1)C(=O)N[C@@H](CCC(N)=O)C(=O)NC(C)(C)C(=O)N[C@@H](CC(=O)O)C(=O)N[C@@H](Cc1ccccc1)C(=O)N[C@H](C(=O)N[C@@H](CCC(=O)O)C(=O)N[C@@H](Cc1ccncc1)C(=O)N[C@@H](CC(C)C)C(=O)N[C@@H](CC(C)C)C(=O)N[C@@H](CCC(=O)O)C(=O)NCC(=O)NCC(=O)N1CCC[C@H]1C(=O)N[C@@H](CO)C(=O)N[C@@H](CO)C(=O)NCC(=O)N[C@@H](C)C(=O)N1CCC[C@H]1C(=O)N1CCC[C@H]1C(=O)N1CCC[C@H]1C(=O)N[C@@H](CO)C(N)=O)C(C)C [Example 74] (H-Y[Aib]EGT[Iva]ISDYSI[αMeL]LDKK([AEEA-AEEA-γGlu-C20 diacid])HQ[Aib]DFVE[4Pal]LLEGGPSSGAPPPS-NH2) | 627 nM | > 5000 nM | 0.0167 nM
CC[C@H](C)[C@H](NC(=O)[C@H](CO)NC(=O)[C@H](Cc1ccc(O)cc1)NC(=O)[C@H](CC(=O)O)NC(=O)[C@H](CO)NC(=O)[C@@H](NC(=O)[C@](C)(Cc1ccccc1F)NC(=O)[C@@H](NC(=O)CNC(=O)[C@H](CCC(=O)O)NC(=O)C(C)(C)NC(=O)[C@@H](N)Cc1ccc(O)cc1)[C@@H](C)O)[C@@H](C)CC)C(=O)N[C@@H](C)C(=O)N[C@@H](CC(C)C)C(=O)N[C@@H](CC(=O)O)C(=O)N[C@@H](CCCCN)C(=O)N[C@H](C(=O)N[C@@H](Cc1c[nH]cn1)C(=O)N[C@@H](CCC(N)=O)C(=O)NC(C)(C)C(=O)N[C@@H](CCC(=O)O)C(=O)N[C@@H](Cc1ccccc1)C(=O)N[C@H](C(=O)N[C@@H](CC(N)=O)C(=O)N[C@@H](Cc1ccc(O)cc1)C(=O)N[C@@H](CCCCNC(=O)COCCOCCNC(=O)COCCOCCNC(=O)CC[C@H](NC(=O)CCCCCCCCCCCCCCCCCCC(=O)O)C(=O)O)C(=O)N[C@@H](CC(C)C)C(=O)N[C@@H](CCC(=O)O)C(=O)NCC(=O)NCC(=O)N1CCC[C@H]1C(=O)N[C@@H](CO)C(=O)N[C@@H](CO)C(=O)NCC(=O)N[C@@H](C)C(=O)N1CCC[C@H]1C(=O)N1CCC[C@H]1C(=O)N1CCC[C@H]1C(=O)N[C@@H](CO)C(N)=O)C(C)C)[C@@H](C)CC [Example 95] (H-Y[Aib]EGT[αMePhe(2-F)]ISDYSIALDKIHQ[Aib]EFVNYK([AEEA-AEEA-γGlu-C20 diacid])LEGGPSSGAPPPS-NH2) | > 5000 nM | > 5000 nM | 0.0272 nM
CC[C@H](C)[C@H](NC(=O)[C@H](CCCN)NC(=O)[C@H](CC(=O)O)NC(=O)[C@H](CC(C)C)NC(=O)[C@](C)(CC(C)C)NC(=O)[C@@H](NC(=O)[C@H](CO)NC(=O)[C@H](Cc1ccc(O)cc1)NC(=O)[C@H](CC(=O)O)NC(=O)[C@H](CO)NC(=O)[C@@H](NC(=O)[C@H](Cc1ccccc1)NC(=O)[C@@H](NC(=O)CNC(=O)[C@H](CCC(=O)O)NC(=O)C(C)(C)NC(=O)[C@@H](N)Cc1ccc(O)cc1)[C@@H](C)O)[C@@H](C)CC)[C@@H](C)CC)C(=O)N[C@@H](Cc1c[nH]cn1)C(=O)N[C@@H](CCC(N)=O)C(=O)NC(C)(C)C(=O)N[C@@H](CC(=O)O)C(=O)N[C@@H](Cc1ccccc1)C(=O)N[C@H](C(=O)N[C@@H](CCC(=O)O)C(=O)N[C@@H](Cc1ccncc1)C(=O)N[C@@H](CCCCNC(=O)COCCOCCNC(=O)COCCOCCNC(=O)CC[C@H](NC(=O)CCCCCCCCCCCCCCCCC(=O)O)C(=O)O)C(=O)N[C@@H](CC(C)C)C(=O)N[C@@H](CCC(=O)O)C(=O)NCC(=O)NCC(=O)N1CCC[C@H]1C(=O)N[C@@H](CO)C(=O)N[C@@H](CO)C(=O)NCC(=O)N[C@@H](C)C(=O)N1CCC[C@H]1C(=O)N1CCC[C@H]1C(=O)N1CCC[C@H]1C(=O)N[C@@H](CO)C(N)=O)C(C)C [Example 111] (H-Y[Aib]EGTFISDYSI[αMeL]LD[Orn]IHQ[Aib]DFVE[4Pal]K([AEEA-AEEA-γGlu-C18 diacid])LEGGPSSGAPPPS-NH2) | > 5000 nM | > 5000 nM | 0.0065 nM
CC[C@H](C)[C@H](NC(=O)[C@H](CCCCN)NC(=O)[C@H](CC(=O)O)NC(=O)[C@H](CC(C)C)NC(=O)[C@](C)(CC(C)C)NC(=O)[C@@H](NC(=O)[C@H](CO)NC(=O)[C@H](Cc1ccc(O)cc1)NC(=O)[C@H](CC(=O)O)NC(=O)[C@H](CO)NC(=O)[C@@H](NC(=O)[C@H](Cc1ccccc1)NC(=O)[C@@H](NC(=O)CNC(=O)[C@H](CCC(=O)O)NC(=O)C(C)(C)NC(=O)[C@@H](N)Cc1ccc(O)cc1)[C@@H](C)O)[C@@H](C)CC)[C@@H](C)CC)C(=O)N[C@@H](Cc1c[nH]cn1)C(=O)N[C@@H](CCC(N)=O)C(=O)NC(C)(C)C(=O)N[C@@H](CC(=O)O)C(=O)N[C@@H](Cc1ccccc1)C(=O)N[C@H](C(=O)N[C@@H](CCC(=O)O)C(=O)N[C@@H](Cc1ccc(O)cc1)C(=O)N[C@@H](CCCCNC(=O)COCCOCCNC(=O)COCCOCCNC(=O)CC[C@H](NC(=O)CCCCCCCCCCCCCCCCCCC(=O)O)C(=O)O)C(=O)N[C@@H](CC(C)C)C(=O)N[C@@H](CCC(=O)O)C(=O)NCC(=O)NCC(=O)N1CCC[C@H]1C(=O)N[C@@H](CO)C(=O)N[C@@H](CO)C(=O)NCC(=O)N[C@@H](C)C(=O)N1CCC[C@H]1C(=O)N1CCC[C@H]1C(=O)N1CCC[C@H]1C(=O)N[C@@H](CO)C(N)=O)C(C)C [Example 5] | > 5000 nM | > 5000 nM | 0.0148 nM
